# Experimental data as given in PMC7855930, “Nontoxic Cobalt(III) Schiff Base Complexes with Broad‐Spectrum Antifungal Activity” (Chemistry (Weinheim an Der Bergstrasse, Germany), 2020).
# System: panel of eight Candida and Cryptococcus strains
# Assay: Antifungal MIC, summary over the extended panel
# Format: cell-based
# Settings: whole yeast panel, tested alone
# Text: Yeast strains: Candida albicans (ATCC 90028, NCCLS 11), Cryptococcus neoformans (ATCC 208821, H99 type strain), Candida tropicalis (ATCC 750, type strain), Candida glabrata (ATCC 90030, NCCLS 84) and Cryptococcus deuterogattii (ATCC 32609, type strain) were obtained from the American Type Culture Collection (ATCC). Cryptococcus deuterogattii (CBS 7750), Candida auris (CBS 10913) and Candida auris (CBS 12373) were obtained from the CBS‐KNAW culture collection. The strains were maintained on glycerol/YPD (yeast extract‐peptone dextrose) broth (20:80 v/v) at −80 °C.
# Antifungal minimum inhibitory concentration (MIC) assay: The cobalt complexes and antifungal control compounds were serially diluted in 50 μL of Yeast Nitrogen Broth (YNB; BD, Cat No. 233520 supplemented with 2 % glucose and 10 mM ammonium sulfate) two‐fold across the wells of non‐binding surface (NBS) 96‐well plates (Corning; Cat. No. 3641). […]
# Yeast strains were cultured from glycerol onto YPD (Becton Dickinson 242720) agar at 30 °C for 72 h. For each strain, a minimum of five single colonies were taken from the agar plate and dissolved in sterile water and adjusted to form a yeast suspension of 1×10^6 to 5×10^6 CFU mL^−1 (as determined by OD530). […]
# Growth inhibition of all strains was determined visually where the MIC was recorded as the lowest compound concentration with no visible growth. […]
smiles,measurement,value
"O=[N+]([O-])[O-].O=[N+]([O-])[O-].[Co+2] [Co, Co(NO3)2, reference compound]","MIC, no detectable antifungal effect up to",> 100 µM
